Experimental data published in ChEMBL document CHEMBL4414581, “Cytotoxic Limonoids from the Twigs and Leaves of Toona ciliata” (J Nat Prod, 2019).
pIC50: −log10 of the molar value.

How the values were obtained:
HL-60 = test: Cytotoxicity against human HL60 cells assessed as reduction in cell viability measured after 48 hrs by MTS assay; format: functional, cell-based; conditions: HL-60, 48 h
MCF7 = test: Cytotoxicity against human MCF7 cells assessed as reduction in cell viability measured after 48 hrs by MTS assay; format: functional, cell-based; conditions: MCF7, 48 h
SW480 = test: Cytotoxicity against human SW480 cells assessed as reduction in cell viability measured after 48 hrs by MTS assay; format: functional, cell-based; conditions: SW480, 48 h
[1] = Cytotoxicity against human […] cells assessed as reduction in cell viability measured after 48 hrs by MTS assay; format: functional, cell-based
A549 = test: Cytotoxicity against human A549 cells assessed as reduction in cell viability measured after 48 hrs by MTS assay; format: functional, cell-based; conditions: A549, 48 h
RAW264.7 = test: Anti-inflammatory activity in mouse RAW264.7 cells assessed as inhibition of LPS-induced nitric oxide production measured after 18 hrs by Griess assay; format: functional, cell-based; conditions: RAW264.7, 18 h
[2] = Cytotoxicity against mouse RAW264.7 cells assessed as cell viability measured after 48 hrs by MTS assay relative to control; format: cell-based; conditions: read-out: Activity

Row | Compound | pIC50 (HL-60) | pIC50 (MCF7) | pIC50 (SW480) | pIC50 [1] | pIC50 (A549) | pIC50 (RAW264.7) | viability at 48 h [2]
1 | C[C@]12[C@H](C[C@H](O)[C@]3(C)OC(=O)[C@H](O)[C@]13O)O[C@@H]1C[C@@]3(C)[C@H](c4ccoc4)C[C@H]4O[C@]43[C@](C)(O)[C@H]12 | < 5.00 | < 5.00 | < 5.00 | < 5.00 | < 5.00 |  | 
2 | C[C@]12[C@H]3[C@@H](C[C@@]4(C)[C@H](C5=CCNC5=O)C[C@H]5O[C@]54[C@]3(C)O)O[C@@]1(O)C=C[C@]1(C)OC(=O)[C@H](O)[C@]21O | < 5.00 | < 5.00 | < 5.00 | < 5.00 | < 5.00 |  | 
3 | CC1(C)C(=O)C=C[C@]2(C)C3=CC[C@@]4(C)[C@H](C5=CCNC5=O)C[C@H]5O[C@]54[C@]3(C)C(=O)C[C@@H]12 | < 5.00 | < 5.00 | < 5.00 | < 5.00 | < 5.00 |  | 
4 | C[C@]12[C@H](C[C@H](O)[C@]3(C)OC(=O)[C@H](O)[C@]13O)O[C@H]1[C@H]2[C@@](C)(O)[C@@]23O[C@@H]2C[C@@H](c2ccoc2)[C@]3(C)[C@H]1O | < 5.00 | < 5.00 | < 5.00 | < 5.00 | < 5.00 |  | 
5 | CO[C@@H]1C=C([C@@H]2C[C@H]3O[C@@]34[C@@]2(C)CC[C@@H]2[C@@]3(C)C=CC(=O)OC(C)(C)[C@@H]3CC(=O)O[C@]24C)C(=O)O1 | < 5.00 | < 5.00 | < 5.00 | < 5.00 | < 5.00 |  | 
6 | C[C@]12[C@H](C[C@@H](O)[C@]3(C)OC(=O)[C@H](O)[C@]13O)O[C@@H]1C[C@@]3(C)[C@H](c4ccoc4)C[C@H]4O[C@]43[C@](C)(O)[C@H]12 | 6.22 | 6.05 | 6.05 | < 5.00 | < 5.00 |  | 
7 | CC1(C)OC(=O)C=C[C@]2(C)[C@H]3CC[C@@]4(C)[C@H](C5=CCNC5=O)C[C@H]5O[C@]54[C@]3(C)OC(=O)C[C@@H]12 | < 5.00 | < 5.00 | < 5.00 | < 5.00 | < 5.00 |  | 
8 | CO[C@]12C=C[C@]3(C)OC(=O)[C@H](O)[C@]3(O)[C@@]1(C)[C@H]1[C@@H](C[C@@]3(C)[C@H](c4ccoc4)C[C@H]4O[C@]43[C@]1(C)O)O2 | < 5.00 | < 5.00 | < 5.00 | < 5.00 | < 5.00 |  | 
9 | C[C@]12[C@H](c3ccoc3)C[C@H]3O[C@]31[C@](C)(O)[C@@H]1[C@H](O[C@@]3(O)C=C[C@]4(C)OC(=O)[C@H](O)[C@]4(O)[C@@]13C)[C@@H]2O | < 5.00 | < 5.00 | < 5.00 | < 5.00 | < 5.00 |  | 
10 | CO[C@@H]1C=C([C@@H]2C[C@H]3O[C@@]34[C@@]2(C)C[C@H]2O[C@@]3(O)C=C[C@]5(C)OC(=O)[C@H](O)[C@]5(O)[C@@]3(C)[C@@H]2[C@@]4(C)O)C(=O)O1 | < 5.00 | < 5.00 | < 5.00 | < 5.00 | < 5.00 |  | 
11 | C[C@]12[C@H](CC(=O)[C@]3(C)OC(=O)[C@H](O)[C@]13O)O[C@H]1[C@H]2[C@@](C)(O)[C@@]23O[C@@H]2C[C@@H](c2ccoc2)[C@]3(C)[C@H]1O | 6.05 | 5.52 | 5.60 | < 5.00 | < 5.00 |  | 
12 | CC1(C)OC(=O)C=C[C@]2(C)[C@H]3CC[C@@]4(C)[C@H](C5=CC(=O)NC5=O)C[C@H]5O[C@]54[C@]3(C)C(=O)C[C@@H]12 | < 5.00 | < 5.00 | < 5.00 | < 5.00 | < 5.00 | 4.55 | > 100%
13 | CC(=O)O[C@@H]1C[C@@H]2O[C@@H]3C[C@@]4(C)[C@H](c5ccoc5)C[C@H]5O[C@]54[C@](C)(O)[C@H]3[C@]2(C)[C@@]2(O)[C@@H](O)C(=O)O[C@@]12C | < 5.00 | 5.62 | 5.43 | < 5.00 | < 5.00 |  | 
14 | CC(=O)O[C@H]1[C@H]2O[C@H]3C[C@@H](O)[C@]4(C)OC(=O)[C@H](O)[C@]4(O)[C@@]3(C)[C@@H]2[C@@](C)(O)[C@@]23O[C@@H]2C[C@@H](c2ccoc2)[C@]13C | 5.80 | 5.43 | 5.40 | < 5.00 | < 5.00 |  | 
15 | CC(=O)O[C@@H]1C[C@]2(C)[C@@H](C(=O)C[C@H]2c2ccoc2)[C@]2(C)[C@H](O)C[C@H]3C(C)(C)OC(=O)C=C[C@]3(C)[C@@H]12 | < 5.00 | < 5.00 | < 5.00 | < 5.00 | < 5.00 |  | 
16 | CO[C@@H]1C=C([C@@H]2C[C@H]3O[C@@]34[C@@]2(C)C[C@H]2O[C@H]3C[C@H](O)[C@]5(C)OC(=O)[C@H](O)[C@]5(O)[C@@]3(C)[C@@H]2[C@@]4(C)O)C(=O)O1 | < 5.00 | < 5.00 | < 5.00 | < 5.00 | < 5.00 |  | 
17 | CC(=O)O[C@H]1[C@@H](OC(C)=O)[C@]2(C)[C@H]([C@H](O)C[C@@]3(C)[C@H](c4ccoc4)C[C@H]4O[C@@]423)[C@@]2(C)C=CC(=O)OC(C)(C)[C@H]12 | < 5.00 | < 5.00 | < 5.00 | < 5.00 | < 5.00 |  | 
18 | CC(=O)O[C@H]1C(=O)O[C@@]2(C)[C@H](OC(C)=O)C[C@@H]3O[C@@H]4C[C@@]5(C)[C@H](c6ccoc6)C[C@H]6O[C@]65[C@](C)(O)[C@H]4[C@]3(C)[C@@]12O | < 5.00 | 5.68 | 5.64 | < 5.00 | < 5.00 |  | 
19 | CC1(C)OC(=O)C=C[C@]2(C)[C@H]3C[C@H](O)[C@@]4(C)[C@H](c5ccoc5)C[C@H]5O[C@]54[C@]3(C)OC(=O)C[C@@H]12 | < 5.00 | < 5.00 | < 5.00 | < 5.00 | < 5.00 |  | 
20 | C[C@]12[C@H]3[C@@H](C[C@@]4(C)[C@H](c5ccoc5)C[C@H]5O[C@]54[C@]3(C)O)O[C@@]1(O)C=C[C@]1(C)OC(=O)[C@H](O)[C@]21O | 5.64 | 5.68 | 5.82 | < 5.00 | < 5.00 |  | 
21 | CC1(C)OC(=O)C=C[C@]2(C)[C@H]3[C@H](O)C[C@@]4(C)[C@H](c5ccoc5)C[C@H]5O[C@]54[C@]3(C)C(=O)C[C@@H]12 | < 5.00 | < 5.00 | < 5.00 | < 5.00 | < 5.00 |  | 
22 | CC1(C)OC(=O)C=C[C@]2(C)[C@H]3CC[C@]4(C)[C@@H](C(=O)C[C@H]4c4ccoc4)[C@]3(C)[C@H](O)C[C@@H]12 | < 5.00 | < 5.00 | < 5.00 | < 5.00 | < 5.00 |  | 
23 | C[C@]12[C@H](CC(=O)[C@]3(C)OC(=O)[C@H](O)[C@]13O)O[C@@H]1C[C@@]3(C)[C@H](c4ccoc4)C[C@H]4O[C@]43[C@](C)(O)[C@H]12 | 6.10 | 5.40 | 5.64 | < 5.00 | < 5.00 |  | 
